Holding throughout (experiment): Antibacterial activity, minimum inhibition concentration (method of The Chemotherapy Association, Japan)
Format in all cases: cell-based

One test has as its system Proteus rettgeri NIH-96. Conditions: Providencia rettgeri, NIH96, strain I: Proteus rettgeri NIH-96; read-out: minimum inhibition concentration. The source says: (§1) The abbreviations A to P will be used in the following Tables 2 to 8.
(§2) Test results are shown in terms of the minimum inhibition concentration (µg/mℓ.) in the following Tables 2 to 8.

Another test concerns Proteus vulgaris OX-19. Conditions: Proteus vulgaris, OX19, strain H: Proteus vulgaris OX-19; read-out: minimum inhibition concentration.
Description: as §1, §2

The subject of test [1] is Bacillus subtilis ATCC 6633. Conditions: Bacillus subtilis, ATCC6633, strain B: Bacillus subtilis ATCC 6633; read-out: minimum inhibition concentration. Here is the method: (§3) Antibacterial activities of the compounds according to this invention, which had been prepared in the preceding Examples, were measured according to the method prescribed by The Committee of Amendment of "The method for measurement of the minimum inhibition concentration", The Chemotherapy Association, Japan (See Chemotherapy, Vol. 22, No. 6, pp. 1126 - 1128 (1974) and Vol. 29, No. 1, pp. 76 - 79 (1981)).
as §1, §2

Test [2] deals with Citrobactor freundii NIH-10018 -68. Conditions: strain O: Citrobactor freundii NIH-10018 -68; read-out: minimum inhibition concentration. As to the method: as §3, §1, §2
Test [3] concerns Enterobactor cloacae NCTC-9394. Conditions: strain N: Enterobactor cloacae NCTC-9394; read-out: minimum inhibition concentration. As to the method:
as §3, §1, §2

For another test, the system named is Escherichia coli NIHJC-2. Conditions: Escherichia coli, NIHJC2, strain L: Escherichia coli NIHJC-2; read-out: minimum inhibition concentration. Here is the method:
as §3, §1, §2

In another test the test system is Escherichia coli NIHJ. Conditions: Escherichia coli, strain K: Escherichia coli NIHJ; read-out: minimum inhibition concentration. Here is the method: as §3, §1, §2
In a further test the test system is Klebsiella pneumoniae. Conditions: Klebsiella pneumoniae, strain C: Klebsiella pneumoniae; read-out: minimum inhibition concentration. Here is the method: as §3, §1, §2
Test [4] relates to Proteus mirabillis B-30-2 IFO-3849. Conditions: strain G: Proteus mirabillis B-30-2 IFO-3849; read-out: minimum inhibition concentration. Here is the method:
as §3, §1, §2

A further test deals with Proteus morgani Kono. Conditions: strain J: Proteus morgani Kono; read-out: minimum inhibition concentration. As to the method:
as §3, §1, §2

Test [5] relates to Pseudomonas aeruginosa NCTC-10490. Conditions: Pseudomonas aeruginosa, NCTC10490, strain M: Pseudomonas aeruginosa NCTC-10490; read-out: minimum inhibition concentration. Here is the method:
as §3, §1, §2

The subject of test [6] is Salmonella typhimurium 3173. Conditions: Salmonella enterica, TYPHIMURIUM, strain D: Salmonella typhimurium 3173; read-out: minimum inhibition concentration. Here is the method:
as §3, §1, §2

A further test relates to Serratia marcescens 1023. Conditions: Serratia marcescens, 1023, strain E: Serratia marcescens 1023; read-out: minimum inhibition concentration. As to the method: as §3, §1, §2
In test [7] the test system is Serratia marcescens IFO-3736. Conditions: Serratia marcescens, IFO3736, strain F: Serratia marcescens IFO-3736; read-out: minimum inhibition concentration. Here is the method: as §3, §1, §2
In test [8] the test system is Staphylococcus aureus 6538-P. Conditions: strain A: Staphylococcus aureus 6538-P; read-out: minimum inhibition concentration. Here is the method:
as §3, §1, §2

Converted amounts (≈) assume the structure as drawn. Some results are limits rather than exact numbers.

As for `Cn1nnnc1SCC1=C(C(=O)O)N2C(=O)C(NC(=O)C(=C(Cl)Cl)c3ccco3)C2SC1` (stereo not drawn) [Compound 1, 7-[2-dichloromethylene-2-(2-furyl)acetamido]-3-(1-methyl-IH-tetrazol-5-yl)thiomethyl-3-cephem-4-carboxylic acid], the MIC with Proteus rettgeri NIH-96 is below 0.025 µg/mL; in the test on Proteus vulgaris OX-19, 0.2 µg/mL (≈ 0.387 µM); in test [1], 1.56 µg/mL (≈ 3.02 µM); in test [2] it was 12.5 µg/mL (≈ 24.2 µM); in [3], 6.25 µg/mL (≈ 12.1 µM); with Escherichia coli NIHJC-2, 25 µg/mL (≈ 48.3 µM). Moreover, the MIC was below 0.025 µg/mL in the test on Escherichia coli NIHJ; 25 µg/mL (≈ 48.3 µM) with Klebsiella pneumoniae; 50 µg/mL (≈ 96.6 µM) in test [4]; 50 µg/mL (≈ 96.6 µM) in the test with Proteus morgani Kono; 3.12 µg/mL (≈ 6.04 µM) in [5]; 12.5 µg/mL (≈ 24.2 µM) in test [6]. Further, the MIC is 1.56 µg/mL (≈ 3.02 µM) in the test with Serratia marcescens 1023, 50 µg/mL (≈ 96.6 µM) in test [7] and 0.39 µg/mL (≈ 0.754 µM) in [8].

As to `CC(=O)OCC1=C(C(=O)O)N2C(=O)C(NC(=O)C(=C(Cl)Cl)c3ccc(N)cc3)[C@H]2SC1` (stereo partly drawn) [4-(2), 7-[2-dichloromethylene-2-(4-aminophenyl)acetamido]-3-acetoxymethyl-3-cephem-4-carboxylic acid], the MIC in the test on Proteus rettgeri NIH-96 was 0.2 µg/mL (≈ 0.411 µM); in the test on Proteus vulgaris OX-19, 6.25 µg/mL (≈ 12.9 µM); in [1], 1.56 µg/mL (≈ 3.21 µM); in test [2] it was above 100 µg/mL; in test [3], above 100 µg/mL; in the test with Escherichia coli NIHJC-2 it was above 100 µg/mL. The MIC is 0.39 µg/mL (≈ 0.802 µM) with Escherichia coli NIHJ; above 100 µg/mL in the test with Klebsiella pneumoniae; above 100 µg/mL in test [4]; above 100 µg/mL in the test on Proteus morgani Kono; 12.5 µg/mL (≈ 25.7 µM) in test [5]; 100 µg/mL (≈ 206 µM) in test [6]. Besides, the MIC with Serratia marcescens 1023 was 3.12 µg/mL (≈ 6.43 µM); in [7], above 100 µg/mL; in [8], 0.39 µg/mL (≈ 0.802 µM).

On to `COc1ccc(C(C(=O)NC2C(=O)N3C(C(=O)O)=C(COC(C)=O)CS[C@H]23)=C(Cl)Cl)cc1` (stereo partly drawn) [Compound 27, 7-[2-dichloromethylene-2-(4-methoxyphenyl)acetamido]-3-acetoxymethyl-3-cephem-4-carboxylic acid], for which the MIC in the test on Proteus rettgeri NIH-96 is 3.12 µg/mL (≈ 6.23 µM); in the test with Proteus vulgaris OX-19 it was above 100 µg/mL; in [1] it was 3.12 µg/mL (≈ 6.23 µM); in test [2], above 100 µg/mL; in test [3], above 100 µg/mL; with Escherichia coli NIHJC-2 it was above 100 µg/mL. In addition, the MIC is 100 µg/mL (≈ 199 µM) with Escherichia coli NIHJ; above 100 µg/mL in the test with Klebsiella pneumoniae; above 100 µg/mL in test [4]; above 100 µg/mL in the test on Proteus morgani Kono; 100 µg/mL (≈ 199 µM) in test [5]; above 100 µg/mL in [6]. Besides, the MIC with Serratia marcescens 1023 was 6.25 µg/mL (≈ 12.5 µM); in test [7], above 100 µg/mL; in test [8], above 100 µg/mL.

Turning to `CC(=O)OCC1=C(C(=O)O)N2C(=O)C(NC(=O)C(=C(Cl)Cl)c3ccc(Cl)s3)[C@H]2SC1` (stereo partly drawn) [Compound 31, 7-[2-dichloromethylene-2-(5-chloro-2-thienyl)acetamido]-3-acetoxymethyl-3-cephem-4-carboxylic acid], the MIC was 1.56 µg/mL (≈ 3.05 µM) in the test on Proteus rettgeri NIH-96; 100 µg/mL (≈ 195 µM) with Proteus vulgaris OX-19; 6.25 µg/mL (≈ 12.2 µM) in test [1]; above 100 µg/mL in [2]; above 100 µg/mL in test [3]; above 100 µg/mL with Escherichia coli NIHJC-2. Moreover, the MIC in the test on Escherichia coli NIHJ was 25 µg/mL (≈ 48.8 µM); in the test with Klebsiella pneumoniae, above 100 µg/mL; in test [4], above 100 µg/mL; in the test on Proteus morgani Kono, above 100 µg/mL; in test [5], 100 µg/mL (≈ 195 µM); in test [6], above 100 µg/mL. The MIC was 100 µg/mL (≈ 195 µM) with Serratia marcescens 1023, above 100 µg/mL in [7] and 0.2 µg/mL (≈ 0.391 µM) in [8].

`CC(=O)OCC1=C(C(=O)O)N2C(=O)C(NC(=O)C(=C(Cl)Cl)c3ccc(O)cc3)[C@H]2SC1` (stereo partly drawn) [Compound 2, 7-[2-dichloromethylene-2-(4-hydroxyphenyl)acetamido]-3-acetoxymethyl-3-cephem-4-carboxylic acid]: the MIC with Proteus rettgeri NIH-96 is 0.2 µg/mL (≈ 0.41 µM); in the test with Proteus vulgaris OX-19, 6.25 µg/mL (≈ 12.8 µM); in test [1], 3.12 µg/mL (≈ 6.41 µM); in test [2], above 100 µg/mL; in [3], above 100 µg/mL; with Escherichia coli NIHJC-2 it was above 100 µg/mL. In addition, the MIC in the test with Escherichia coli NIHJ was 0.39 µg/mL (≈ 0.8 µM); in the test with Klebsiella pneumoniae, above 100 µg/mL; in test [4] it was above 100 µg/mL; in the test on Proteus morgani Kono, above 100 µg/mL; in test [5] it was 6.25 µg/mL (≈ 12.8 µM); in test [6], 100 µg/mL (≈ 205 µM). In addition, the values for the MIC (with Serratia marcescens 1023; in test [7]; in test [8]) were 6.25 µg/mL (≈ 12.8 µM), above 100 µg/mL and 0.39 µg/mL (≈ 0.8 µM), respectively.

`Nc1nc(C(=CCl)C(=O)NC2C(=O)N3C(C(=O)[O-])=C(C[n+]4ccccc4)CSC23)cs1` (stereo not drawn) [Compound 24, 7-[2-chloromethylene-2-(2-aminothiazol-4-yl)acetamido]-3-pyridiniummethyl-3-cephem-4-carboxylic acid betaine]: the MIC amounted to 0.78 µg/mL (≈ 1.63 µM) in the test with Proteus rettgeri NIH-96; 3.12 µg/mL (≈ 6.54 µM) in the test with Proteus vulgaris OX-19; 25 µg/mL (≈ 52.3 µM) in test [1]; 25 µg/mL (≈ 52.3 µM) in test [2]; 12.5 µg/mL (≈ 26.2 µM) in test [3]; 25 µg/mL (≈ 52.3 µM) in the test with Escherichia coli NIHJC-2. In addition, the MIC with Escherichia coli NIHJ was 1.56 µg/mL (≈ 3.26 µM); in the test with Klebsiella pneumoniae, 25 µg/mL (≈ 52.3 µM); in test [4], 12.5 µg/mL (≈ 26.2 µM); with Proteus morgani Kono, 25 µg/mL (≈ 52.3 µM); in test [5], above 100 µg/mL; in test [6] it was 25 µg/mL (≈ 52.3 µM). The MIC in the test with Serratia marcescens 1023 came out at 25 µg/mL (≈ 52.3 µM); in test [7], 50 µg/mL (≈ 105 µM); in [8], 6.25 µg/mL (≈ 13.1 µM).

On to `Cn1nnnc1SCC1=C(C(=O)O)N2C(=O)C(NC(=O)C(=CCl)c3cccs3)C2SC1` (stereo not drawn) [Compound 34, 7-[2-chloromethylene-2-(2-thienyl)acetamido]-3-(l-methyl-lH-tetrazol-5-yl)thiomethyl-3-cephem-4-carboxylic acid], for which the MIC with Proteus rettgeri NIH-96 is 0.05 µg/mL (≈ 0.1 µM); in the test on Proteus vulgaris OX-19 it was 12.5 µg/mL (≈ 25.1 µM); in test [1], 0.78 µg/mL (≈ 1.56 µM); in [2], 100 µg/mL (≈ 200 µM); in test [3], 12.5 µg/mL (≈ 25.1 µM); with Escherichia coli NIHJC-2, 25 µg/mL (≈ 50.1 µM). The MIC in the test with Escherichia coli NIHJ was 1.56 µg/mL (≈ 3.13 µM); in the test on Klebsiella pneumoniae, 100 µg/mL (≈ 200 µM); in test [4] it was 100 µg/mL (≈ 200 µM); in the test on Proteus morgani Kono it was 100 µg/mL (≈ 200 µM); in [5], 100 µg/mL (≈ 200 µM); in test [6] it was 12.5 µg/mL (≈ 25.1 µM). The results for the MIC (in the test on Serratia marcescens 1023; in test [7]; in test [8]) were 1.56 µg/mL (≈ 3.13 µM), 100 µg/mL (≈ 200 µM) and 25 µg/mL (≈ 50.1 µM), respectively.

In the case of `CC(=O)OCC1=C(C(=O)O)N2C(=O)C(NC(=O)C(=C(Cl)Cl)c3ccc(Br)s3)[C@H]2SC1` (stereo partly drawn) [Compound 32, 7-[2-dichloromethylene-2-(5-bromo-2-thienyl)acetamido]-3-acetoxymethyl-3-cephem-4-carboxylic acid], the MIC with Proteus rettgeri NIH-96 was 0.78 µg/mL (≈ 1.4 µM); in the test with Proteus vulgaris OX-19 it was 100 µg/mL (≈ 180 µM); in test [1], 6.25 µg/mL (≈ 11.2 µM); in [2], above 100 µg/mL; in [3], above 100 µg/mL; in the test on Escherichia coli NIHJC-2 it was above 100 µg/mL. The MIC was 25 µg/mL (≈ 44.9 µM) in the test with Escherichia coli NIHJ; above 100 µg/mL in the test on Klebsiella pneumoniae; above 100 µg/mL in test [4]; above 100 µg/mL in the test with Proteus morgani Kono; 50 µg/mL (≈ 89.9 µM) in test [5]; above 100 µg/mL in test [6]. The MIC in the test on Serratia marcescens 1023 was 12.5 µg/mL (≈ 22.5 µM); in [7], above 100 µg/mL; in test [8], 0.1 µg/mL (≈ 0.18 µM).
